Consider twelve molecules from PubChem BioAssay (NCI).

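Test compounds were applied to cells in 96-well plates for 48 hours at 5 doses. TGI is the concentration that stops growth completely.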

Some test systems named below: TK-10 renal; T-47D breast; KM12 colon; SK-MEL-28 melanoma; SNB-75 CNS; MALME-3M melanoma; HOP-62 NSCLC; SF-295 CNS; UACC-257 melanoma; SK-MEL-2 melanoma.
Holding throughout (test): inhibition of tumour cell growth, NCI panel, 48 h

As for `O=C1C(c2cnc3ccccc3n2)=C(O)c2ccccc21`, the TGI with TK-10 renal was over 100 µM; with T-47D breast, over 100 µM; in the test with KM12 colon it was over 41.1 µM; in the test on SK-MEL-28 melanoma, over 100 µM; with SNB-75 CNS, 79.9 µM; with MALME-3M melanoma it was over 100 µM. Moreover, the TGI in the test on HOP-62 NSCLC is over 100 µM; in the test with SF-295 CNS, over 88.1 µM; with UACC-257 melanoma, over 95.9 µM; in the test with SK-MEL-2 melanoma, over 100 µM.
On to `c1ccc(CSC2(SCc3ccccc3)CCCCC2)cc1`, for which the TGI with TK-10 renal, in the test with T-47D breast, in the test with KM12 colon, in the test with SK-MEL-28 melanoma, with SNB-75 CNS and in the test on MALME-3M melanoma was over 10 µM in each case. Further, the TGI in the test on HOP-62 NSCLC, in the test on SF-295 CNS, in the test on UACC-257 melanoma and with SK-MEL-2 melanoma was over 10 µM in each case.
Consider `O=C(N/N=C/c1ccccc1)c1cccc2nc3ccccc3nc12`, for which the TGI with TK-10 renal, in the test on T-47D breast, in the test on KM12 colon, in the test on SK-MEL-28 melanoma, in the test with SNB-75 CNS and in the test with MALME-3M melanoma was over 100 µM throughout. For the same molecule, the TGI is over 45.7 µM with HOP-62 NSCLC, over 86.5 µM with SF-295 CNS, over 100 µM in the test with UACC-257 melanoma and over 100 µM in the test with SK-MEL-2 melanoma.
Consider `CC(=O)OC(C)(C)CCC(=O)[C@](C)(O)[C@H]1[C@H](O)C[C@@]2(C)[C@@H]3CCc4c(cc(OC5OC(CO)C(O)C(O)C5O)c(O)c4C)C3(C)C(=O)C[C@]12C` (stereo not given in full), for which the TGI in the test on TK-10 renal, with T-47D breast, with KM12 colon, in the test on SK-MEL-28 melanoma, in the test on SNB-75 CNS and in the test on MALME-3M melanoma was over 100 µM throughout. Further, the TGI in the test with HOP-62 NSCLC, in the test on SF-295 CNS, in the test on UACC-257 melanoma and in the test on SK-MEL-2 melanoma was over 100 µM in each case.
`Cc1ccc(Nc2nc3c(=O)n(C)c(=O)n(C)c3nc2Nc2ccc(C)cc2)cc1`: the TGI in the test on TK-10 renal came out at 29.9 µM; in the test on T-47D breast it was 30.3 µM; in the test on KM12 colon, 34.5 µM; with SK-MEL-28 melanoma, 30.8 µM; in the test with SNB-75 CNS, 35.2 µM; with MALME-3M melanoma, 28.6 µM. Further, the TGI with HOP-62 NSCLC stood at 40.9 µM; with SF-295 CNS, 45.7 µM; in the test on UACC-257 melanoma, 30.5 µM; in the test on SK-MEL-2 melanoma it was 33.5 µM.
In the case of `C=C1C[C@H](O)[C@H](Br)C(C)(C)C12CCC(C)(Cl)C(Br)C2` (stereo not given in full), the TGI in the test on TK-10 renal came out at 13.1 µM; in the test with T-47D breast, 13.5 µM; with KM12 colon, 9.88 µM; in the test on SK-MEL-28 melanoma, 19 µM; in the test with SNB-75 CNS, 11.2 µM; with MALME-3M melanoma, 16.6 µM. The TGI stood at 12.2 µM in the test on HOP-62 NSCLC, 8.13 µM in the test on SF-295 CNS, 3.06 µM with UACC-257 melanoma and 6.55 µM with SK-MEL-2 melanoma.
As to `CCOC(=O)C(Cl)(NC(=O)OCc1ccccc1)C(F)(F)F` (stereo not given), the TGI in the test with TK-10 renal, in the test with T-47D breast, in the test with KM12 colon, in the test on SK-MEL-28 melanoma, in the test on SNB-75 CNS and in the test with MALME-3M melanoma was over 100 µM each time. Besides, the TGI in the test on HOP-62 NSCLC, in the test on SF-295 CNS, in the test on UACC-257 melanoma and with SK-MEL-2 melanoma was over 100 µM throughout.
As for `N#Cc1c(-c2ccccc2)c(CN2CCCCC2)c(=O)n2c1[nH]c1ccccc12`, the TGI in the test on TK-10 renal, in the test on T-47D breast, with KM12 colon, with SK-MEL-28 melanoma, in the test on SNB-75 CNS and in the test with MALME-3M melanoma was over 100 µM in each case. Also, the TGI in the test with HOP-62 NSCLC was 91.5 µM; in the test with SF-295 CNS, over 100 µM; with UACC-257 melanoma it was over 100 µM; in the test on SK-MEL-2 melanoma, over 100 µM.
For the molecule `O=C(c1cc2c(c3ccccc13)NC1(CCCCC1)N=C2C(F)(F)F)C(F)(F)F`, the TGI in the test with TK-10 renal turned out to be 14 µM; in the test on T-47D breast, 13.5 µM; in the test with KM12 colon, 14.2 µM; in the test on SK-MEL-28 melanoma it was 22.6 µM; with SNB-75 CNS, 19.1 µM; in the test on MALME-3M melanoma, 17.4 µM. In addition, the TGI is over 100 µM in the test with HOP-62 NSCLC, 10.9 µM with SF-295 CNS, 11.3 µM in the test on UACC-257 melanoma and 5.87 µM in the test on SK-MEL-2 melanoma.
As to `CC(=O)N(C(C)=O)c1cc2c3c(c1)CCCN3CCC2`, the TGI in the test on TK-10 renal, in the test on T-47D breast, in the test on KM12 colon, with SK-MEL-28 melanoma, in the test with SNB-75 CNS and in the test on MALME-3M melanoma was over 10 µM throughout. Moreover, the TGI in the test with HOP-62 NSCLC, in the test with SF-295 CNS, in the test on UACC-257 melanoma and in the test with SK-MEL-2 melanoma was over 10 µM each time.
Consider `Cc1[nH]c(=O)nc(NNCc2ccc(Cl)cc2)c1C(=O)Nc1ccc(Cl)cc1`, for which the TGI in the test on TK-10 renal, in the test on T-47D breast, in the test with KM12 colon, in the test on SK-MEL-28 melanoma, in the test on SNB-75 CNS and with MALME-3M melanoma was over 100 µM throughout. Also, the TGI in the test with HOP-62 NSCLC, with SF-295 CNS, with UACC-257 melanoma and with SK-MEL-2 melanoma was over 100 µM in each case.
With `O=C(c1ccccc1)N1C(=S)N(c2ccccn2)C(=Nc2ccccc2)C1=Nc1ccccc1`, the TGI in the test with TK-10 renal is 88.2 µM; in the test on T-47D breast, over 62.1 µM; in the test with KM12 colon it was 19 µM; with SK-MEL-28 melanoma, over 100 µM; in the test on SNB-75 CNS, over 100 µM; with MALME-3M melanoma it was 53.4 µM. Further, the TGI in the test on HOP-62 NSCLC is over 84 µM; with SF-295 CNS, over 73.8 µM; in the test with UACC-257 melanoma it was over 74.6 µM; with SK-MEL-2 melanoma it was 34.6 µM.
